This note sets out measurements from US9255101B2 (BIOPROJECT, priority 2012, dated 2016).

Assay [1] concerns the target T1, human H4 receptor (Homo sapiens, UniProt Q9H3N8).
The target in assay [2] is T1, human H4 receptor. The source holds these as a separate data set.
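Throughout, for IC50: membranes from SH-SY5Y cells with stable human H4 receptor expression, incubated with GDP 10 µM, radioactivity retained on filters counted by liquid scintillation.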
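Throughout, for Ki: radioligand displacement of a [3H]-labelled ligand from membranes of CHO cells stably expressing human H4 receptor, bound radioactivity counted on filters by liquid scintillation.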

T1 sequence (Q9H3N8 whole entry): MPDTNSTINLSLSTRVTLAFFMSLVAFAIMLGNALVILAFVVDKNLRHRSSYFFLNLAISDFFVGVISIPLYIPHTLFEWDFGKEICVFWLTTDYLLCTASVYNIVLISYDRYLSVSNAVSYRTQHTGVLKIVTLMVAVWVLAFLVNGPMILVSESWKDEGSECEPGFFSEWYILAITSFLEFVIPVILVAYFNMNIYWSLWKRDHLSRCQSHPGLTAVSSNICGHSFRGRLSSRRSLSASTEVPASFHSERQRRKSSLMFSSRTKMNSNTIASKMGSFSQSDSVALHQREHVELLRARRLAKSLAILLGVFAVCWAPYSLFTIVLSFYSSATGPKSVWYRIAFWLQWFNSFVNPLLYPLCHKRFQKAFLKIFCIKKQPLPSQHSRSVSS

For “4-(1-methylpiperidin-4-yloxy)-2-phenylethynyl-9,10-dihydro-4H-3,10a-diaza-benzo[f]azulene [Example 34]”, at human H4 receptor [1], the IC50 – broadly, the concentration that inhibits the measured activity by half – was less than 300 nM. The inhibitory constant (Ki) (as a rule, the equilibrium dissociation constant of an inhibitor or competing ligand from its target) on human H4 receptor [2] was less than 300 nM.

`CN1CCC(OC2c3ccccc3CCn3cc(C#Cc4cccnc4)nc32)CC1` (stereo not shown) [Example 63, 4-(1-methylpiperidin-4-yloxy)-2-pyridin-3-ylethynyl-9,10-dihydro-4H-3,10a-diaza-benzo[f]azulene] returned a Ki at human H4 receptor [2] of less than 1000 nM.

For the compound `Cc1ccc(-c2cn3c(n2)C(OC2CCN(C)CC2)c2ccccc2CC3)s1` (stereo not shown) [Example 96, 4-(1-methylpiperidin-4-yloxy)-2-(5-methylthiophen-2-yl)-9,10-dihydro-4H-3,10a-diaza-benzo[f]azulene], the IC50 on human H4 receptor [1] is less than 300 nM. For the same compound, at human H4 receptor [2], the Ki is less than 300 nM.

`Cc1c(-c2ccc(NS(=O)(=O)C3CC3)cc2)nc2n1CCc1ccccc1C2OC1CCN(C)CC1` (stereo not shown) [Example 187, 4-[1-methyl-4-(1-methylpiperidin-4-yloxy)-9,10-dihydro-4H-3,10a-diaza-benzo[f]azulen-2-yl]-phenyl-cyclopropanesulfonamide] came in with a half-maximal inhibitory concentration (IC50) at human H4 receptor [1] of less than 300 nM. The Ki at human H4 receptor [2] was less than 300 nM.
